Data: patent US8580918B2, “Peptidic GLP-2 agonists” (Ferring B.V., priority 2009, dated 2013)
Where a SMILES comes first, the peptide text is derived from it. [ ]: non-standard residue; d: D form. The star is where a group is joined. Nle = CCCC[C@H](N)C(=O)O; NHIsopentyl = CC(C)CCN*

Assay: Pharmacokinetics in rats after intravenous bolus injection (systemic clearance)
Assay type: in vivo
Conditions: rat, plasma, 0.2 mg FB/kg, adult male Sprague-Dawley rats, i.v. bolus, dose 0.20 mg FB/kg, read-out: CL (ml/kg/min) Average
Experimental: Pharmacokinetic (PK) parameters of illustrative agonists of the GLP-2 receptor were determined in adult male Sprague-Dawley rats post intravenous bolus injection of compounds at doses of 0.1-1.0 mg/kg. Three or four doubly cannulated animals per compound were dosed via jugular vein, blood samples were collected at several intervals via carotid artery, and plasma samples were prepared from whole blood using K2EDTA as anticoagulant. Subsequent bioanalysis of samples included compound extraction and plasma concentration determination using standard LC/MS/MS methods. Analyte concentration was calculated from internal standard normalized peak area and calibration curves.
For calculation of PK parameters the compound concentration-time curves were analyzed with the noncompartmental data analysis software package PK Solutions 2.0™ (Summit Research Services, Montrose Colo.). The systemic clearance per kg body weight (CL) was calculated as the dose per kg body weight divided by the AUC extrapolated to infinity based on trapezoid calculation (AUC∞). Values reported are the arithmetic mean and standard deviation from the number of animals used for each compound as indicated on Table 3.

For `CCCC[C@H](NC(=O)[C@H](CCC(=O)O)NC(=O)[C@H](CC(=O)O)NC(=O)[C@H](CO)NC(=O)[C@H](Cc1ccccc1)NC(=O)[C@H](CO)NC(=O)[C@@H](C)NC(=O)[C@H](CC(=O)O)NC(=O)CNC(=O)[C@@H](N)Cc1cnc[nH]1)C(=O)N[C@@H](CC(N)=O)C(=O)N[C@H](C(=O)N[C@H](C(=O)N[C@@H](CC(C)C)C(=O)N[C@@H](CC(=O)O)C(=O)N[C@@H](CC(N)=O)C(=O)N[C@@H](CC(C)C)C(=O)N[C@@H](C)C(=O)N[C@@H](C)C(=O)N[C@@H](CCCNC(=N)N)C(=O)N[C@@H](CC(=O)O)C(=O)N[C@@H](Cc1ccccc1)C(=O)N[C@H](C(=O)N[C@@H](CC(N)=O)C(=O)N[C@@H](Cc1c[nH]c2ccccc12)C(=O)N[C@@H](CC(C)C)C(=O)N[C@H](C(=O)N[C@@H](CCC(N)=O)C(=O)N[C@H](C(=O)N[C@@H](CCCCN)C(N)=O)[C@@H](C)O)[C@@H](C)CC)[C@@H](C)CC)[C@@H](C)CC)[C@@H](C)O` [Compound 1, [Gly2,D-Ala4,Nle10] hGLP-2 (1-30)-NH2] (H-HGD[dA]SFSDE[Nle]NTILDNLAARDFINWLIQTK-NH2), which clearance is on record?
Its clearance is 7.1 mL/kg/min.

With `CCCC[C@H](NC(=O)[C@H](CCC(=O)O)NC(=O)[C@H](CC(=O)O)NC(=O)[C@H](CO)NC(=O)[C@H](Cc1ccccc1)NC(=O)[C@H](CO)NC(=O)CNC(=O)[C@H](CC(=O)O)NC(=O)CNC(=O)[C@@H](N)Cc1c[nH]cn1)C(=O)N[C@@H](CC(N)=O)C(=O)N[C@H](C(=O)N[C@H](C(=O)N[C@@H](CC(C)C)C(=O)N[C@@H](CC(=O)O)C(=O)N[C@@H](CC(N)=O)C(=O)N[C@@H](CC(C)C)C(=O)N[C@@H](C)C(=O)N[C@@H](C)C(=O)N[C@@H](CCCNC(=N)N)C(=O)N[C@@H](CC(=O)O)C(=O)N[C@@H](Cc1ccccc1)C(=O)N[C@H](C(=O)N[C@@H](CC(N)=O)C(=O)N[C@@H](Cc1c[nH]c2ccccc12)C(=O)N[C@@H](CC(C)C)C(=O)N[C@H](C(=O)N[C@@H](CCC(N)=O)C(=O)N[C@H](C(=O)N[C@@H](CCCCN)C(=O)NCCC(C)C)[C@@H](C)O)[C@@H](C)CC)[C@@H](C)CC)[C@@H](C)CC)[C@@H](C)O` [Compound 5, [Gly2,Nle10] hGLP-2 (1-30)-NH-i-Am] (H-HGDGSFSDE[Nle]NTILDNLAARDFINWLIQTK-NHIsopentyl) as the molecule, how does the clearance read?
Its clearance is 1.2 mL/kg/min.

Which clearance does the source give for `CCCC[C@H](NC(=O)[C@H](CCC(=O)O)NC(=O)[C@H](CC(=O)O)NC(=O)[C@H](CO)NC(=O)[C@H](Cc1ccccc1)NC(=O)[C@H](CO)NC(=O)CNC(=O)[C@H](CC(=O)O)NC(=O)CNC(=O)[C@@H](N)Cc1c[nH]cn1)C(=O)N[C@@H](CC(N)=O)C(=O)N[C@H](C(=O)N[C@H](C(=O)N[C@@H](CC(C)C)C(=O)N[C@@H](CC(=O)O)C(=O)N[C@@H](CC(N)=O)C(=O)N[C@@H](CC(C)C)C(=O)N[C@@H](C)C(=O)N[C@@H](C)C(=O)N[C@@H](CCCNC(=N)N)C(=O)N[C@@H](CC(=O)O)C(=O)N[C@@H](Cc1ccccc1)C(=O)N[C@H](C(=O)N[C@@H](CC(N)=O)C(=O)N[C@@H](Cc1c[nH]c2ccccc12)C(=O)N[C@@H](CC(C)C)C(=O)N[C@H](C(=O)N[C@@H](CCC(N)=O)C(=O)N[C@H](C(=O)N[C@@H](CCCCN)C(=O)NCC)[C@@H](C)O)[C@@H](C)CC)[C@@H](C)CC)[C@@H](C)CC)[C@@H](C)O` [Compound 6, [Gly2,Nle10] hGLP-2 (1-30)-NH—Et] (H-HGDGSFSDE[Nle]NTILDNLAARDFINWLIQTK-NHEt) here?
Its clearance is 6.3 mL/kg/min.

Which clearance does the source give for `CCCC[C@H](NC(=O)[C@H](CCC(=O)O)NC(=O)[C@H](CC(=O)O)NC(=O)[C@H](CO)NC(=O)[C@H](Cc1ccccc1)NC(=O)[C@H](CO)NC(=O)CNC(=O)[C@H](CC(=O)O)NC(=O)CNC(=O)[C@@H](N)Cc1c[nH]cn1)C(=O)N[C@@H](CC(N)=O)C(=O)N[C@H](C(=O)N[C@H](C(=O)N[C@@H](CC(C)C)C(=O)N[C@@H](CC(=O)O)C(=O)N[C@@H](CC(C)C)C(=O)N[C@@H](CC(C)C)C(=O)N[C@@H](C)C(=O)N[C@@H](C)C(=O)N[C@@H](CCCNC(=N)N)C(=O)N[C@@H](CC(=O)O)C(=O)N[C@@H](Cc1ccccc1)C(=O)N[C@H](C(=O)N[C@@H](CC(N)=O)C(=O)N[C@@H](Cc1c[nH]c2ccccc12)C(=O)N[C@@H](CC(C)C)C(=O)N[C@H](C(=O)N[C@@H](CCC(N)=O)C(=O)N[C@H](C(=O)N[C@@H](CCCCN)C(N)=O)[C@@H](C)O)[C@@H](C)CC)[C@@H](C)CC)[C@@H](C)CC)[C@@H](C)O` [Compound 11, [Gly2,Nle10,Leu16] hGLP-2 (1-30)-NH2] (H-HGDGSFSDE[Nle]NTILDLLAARDFINWLIQTK-NH2) here?
The clearance was 0.84 mL/kg/min.

For `CCCC[C@H](NC(=O)[C@H](CCC(=O)O)NC(=O)[C@H](CC(=O)O)NC(=O)[C@H](CO)NC(=O)[C@H](Cc1ccccc1)NC(=O)[C@H](CO)NC(=O)CNC(=O)[C@H](CC(=O)O)NC(=O)CNC(=O)[C@@H](N)Cc1cnc[nH]1)C(=O)N[C@H](Cc1ccccc1)C(=O)N[C@H](C(=O)N[C@H](C(=O)N[C@@H](CC(C)C)C(=O)N[C@@H](CC(=O)O)C(=O)N[C@@H](CC(N)=O)C(=O)N[C@@H](CC(C)C)C(=O)N[C@@H](C)C(=O)N[C@@H](C)C(=O)N[C@@H](CCCNC(=N)N)C(=O)N[C@@H](CC(=O)O)C(=O)N[C@@H](Cc1ccccc1)C(=O)N[C@H](C(=O)N[C@@H](CC(N)=O)C(=O)N[C@@H](Cc1c[nH]c2ccccc12)C(=O)N[C@@H](CC(C)C)C(=O)N[C@H](C(=O)N[C@@H](CCC(N)=O)C(=O)N[C@H](C(=O)N[C@@H](CCCCN)C(N)=O)[C@@H](C)O)[C@@H](C)CC)[C@@H](C)CC)[C@@H](C)CC)[C@@H](C)O` [Compound 13, [Gly2,Nle10,D-Phe11] hGLP-2 (1-30)-NH2] (H-HGDGSFSDE[Nle][dF]TILDNLAARDFINWLIQTK-NH2), which clearance is on record?
Its clearance is 1.2 mL/kg/min.

Same assay, conditions: rat, plasma, adult male Sprague-Dawley rats, i.v. bolus, dose 0.18 mg FB/kg, read-out: CL (ml/kg/min) Average

With `CCCC[C@H](NC(=O)[C@H](CCC(=O)O)NC(=O)[C@H](CC(=O)O)NC(=O)[C@H](CO)NC(=O)[C@H](Cc1ccccc1)NC(=O)[C@H](CO)NC(=O)CNC(=O)[C@H](CC(=O)O)NC(=O)CNC(=O)[C@@H](N)Cc1c[nH]cn1)C(=O)N[C@@H](CC(N)=O)C(=O)N[C@H](C(=O)N[C@H](C(=O)N[C@@H](CC(C)C)C(=O)N[C@@H](CC(=O)O)C(=O)N[C@@H](CC(N)=O)C(=O)N[C@@H](CC(C)C)C(=O)N[C@@H](C)C(=O)N[C@@H](C)C(=O)N[C@@H](CCCNC(=N)N)C(=O)N[C@@H](CC(=O)O)C(=O)N[C@@H](Cc1ccccc1)C(=O)N[C@H](C(=O)N[C@@H](CC(N)=O)C(=O)N[C@@H](Cc1c[nH]c2ccccc12)C(=O)N[C@@H](CC(C)C)C(=O)N[C@H](C(=O)N[C@@H](CCCNC(=N)N)C(=O)N[C@H](C(=O)N[C@@H](CCCCN)C(=O)NCCC(C)C)[C@@H](C)O)[C@@H](C)CC)[C@@H](C)CC)[C@@H](C)CC)[C@@H](C)O` [Compound 10, [Gly2,Nle10,Arg28] hGLP-2 (1-30)-NH-i-Am] (H-HGDGSFSDE[Nle]NTILDNLAARDFINWLIRTK-NHIsopentyl) as the molecule, how does the clearance read?
Its clearance is 1.5 mL/kg/min.
